From US20250215101A1, “DR5 Agonist and PLK1 Inhibitor or CDK Inhibitor Combination Therapy” (Inhibrx Biosciences, Inc., priority 2022, published 2025)

Assays:
[1] = system: CAL-78, OUMS-27, SW1353, H-EMC-SS, SW620, HS-SY-II; assay: Cytotoxicity screens INBRX-109 + CDK9 or MCL-1 inhibitor, summary over the cell lines; assay type: cell-based; details: combination with INBRX-109
Excerpt: Data was graphed in GraphPad Prism 9.

CAL-78 = assay: Cell viability (CellTiter-Glo) cytotoxicity assay, INBRX-109 x CDK9 or MCL-1 inhibitor matrix, 48 h, chondrosarcoma line
Method: (§1) On day 1, cells were seeded as follows. Monolayer cultures of each cell line (chondrosarcoma: CAL-78, OUMS-27, SW1353, and H-EMC-SS; colorectal cancer: SW620; and synovial sarcoma: HS-SY-II) were harvested for compound screening. Culture medium was aspirated, and the cells were washed once with PBS. Accutase was added and flasks were incubated at 37° C. until cells became detached. An equal volume of complete medium was added to quench the Accutase, and the cells were then pipetted up and down several times to generate a homogenous single cell suspension. The density and viability of cells was determined by Trypan Blue using a TC20 Automated Cell Counter. Experimental cells were resuspended to a concentration of 0.17×10^6/mL in Eagle's Minimum Essential Medium (EMEM)/10% FBS/Anti-Anti media (complete EMEM) and seeded in the inner wells of 384-well luminescence plates at 15 mL/well (2,500/well final). Each cell line was plated in duplicate on separate plates. Outer wells were filled with 50 mL PBS, then plates were incubated in a humidified temperature-controlled 37° C. tissue culture incubator at 5% CO2 overnight for 16 hours.
(§2) These test articles were added, in duplicate, to each cell line. The plates were then centrifuged at 400×g for 1 minute, then incubated in a 37° C. humidity-controlled tissue culture incubator (5% CO2) for 48 hours.
(§3) After incubation with the test articles, viability measurements were taken, briefly. Plates were equilibrated to room temperature for 10 minutes, then 25 μL of CellTiter-Glo 2.0® was added to each well. Plates were spun for 1 minute at 400×g, then covered and incubated in the dark for 10 minutes at room temperature. Any visible bubbles were removed with 100% ethanol vapor, then luminescence (RLU) was read on the Spectra Max M5e plate reader, using the 384-well opaque plate setting and SoftMax® Pro v5.4 software with an integration time of 50 milliseconds. To determine the effect of test articles on cell viability, raw RLU values were exported to Excel and percent survival was calculated as a percentage of vehicle control (0.5% DMSO in EMEM), where the vehicle control is set at 100%. Data was graphed in GraphPad Prism 9.

OUMS-27 = assay: as above
Method: as §1, §2, §3

SW1353 = assay: as above
Method: as §1, §2, §3

H-EMC-SS = assay: as above
Method: as §1, §2, §3

HS-SY-II = assay: Cell viability (CellTiter-Glo) cytotoxicity assay, INBRX-109 x CDK9 or MCL-1 inhibitor matrix, 48 h, synovial sarcoma line
Method: as §1, §2, §3

SW620 = assay: Cell viability (CellTiter-Glo) cytotoxicity assay, INBRX-109 x CDK9 or MCL-1 inhibitor matrix, 48 h, colorectal cancer line
Method: as §1, §2, §3

CDK9 = CDK9 (Homo sapiens, UniProt P50750); details: cited from earlier work
Chain of CDK9 (P50750 whole entry): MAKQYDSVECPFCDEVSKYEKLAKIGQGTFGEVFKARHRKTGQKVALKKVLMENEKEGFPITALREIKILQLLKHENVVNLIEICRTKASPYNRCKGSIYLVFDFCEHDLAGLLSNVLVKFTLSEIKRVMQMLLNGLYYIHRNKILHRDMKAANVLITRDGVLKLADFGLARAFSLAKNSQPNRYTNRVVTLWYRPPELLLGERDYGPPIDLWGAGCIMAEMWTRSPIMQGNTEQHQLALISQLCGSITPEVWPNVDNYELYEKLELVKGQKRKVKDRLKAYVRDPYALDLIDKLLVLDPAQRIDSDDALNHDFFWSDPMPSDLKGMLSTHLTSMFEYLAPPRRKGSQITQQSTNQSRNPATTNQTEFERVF
Chain of CDK9 (O60563 whole entry partner): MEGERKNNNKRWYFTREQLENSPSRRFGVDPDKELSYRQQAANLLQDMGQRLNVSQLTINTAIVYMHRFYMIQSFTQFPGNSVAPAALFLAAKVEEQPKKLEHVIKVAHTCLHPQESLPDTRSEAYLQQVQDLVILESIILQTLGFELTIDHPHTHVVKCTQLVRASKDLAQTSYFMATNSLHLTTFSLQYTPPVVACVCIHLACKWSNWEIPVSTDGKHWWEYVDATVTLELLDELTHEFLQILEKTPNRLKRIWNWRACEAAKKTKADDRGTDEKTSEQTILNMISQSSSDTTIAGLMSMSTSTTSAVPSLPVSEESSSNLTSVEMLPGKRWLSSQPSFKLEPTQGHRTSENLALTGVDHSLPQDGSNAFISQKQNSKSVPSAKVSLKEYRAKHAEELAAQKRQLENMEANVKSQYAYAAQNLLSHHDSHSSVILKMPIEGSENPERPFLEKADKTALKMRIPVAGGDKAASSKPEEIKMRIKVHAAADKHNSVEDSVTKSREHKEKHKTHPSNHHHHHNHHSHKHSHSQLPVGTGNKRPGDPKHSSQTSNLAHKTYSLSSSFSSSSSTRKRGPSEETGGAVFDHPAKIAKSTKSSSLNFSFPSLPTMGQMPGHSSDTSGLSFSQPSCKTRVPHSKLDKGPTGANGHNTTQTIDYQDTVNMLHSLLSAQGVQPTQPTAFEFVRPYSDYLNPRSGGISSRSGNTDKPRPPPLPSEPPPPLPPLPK

[2] = concentrations of 125 nM or higher

In the case of `CN1CC[C@H](c2c(O)cc(O)c3c(=O)cc(-c4ccccc4Cl)oc23)[C@H](O)C1` [Flavopiridol], the “cell killing by the combination” value [1] is reported as “increased cell killing on nearly every cancer cell line tested”, the “combination effect (shift in the killing curves of INBRX-109)” value [1, 2] is reported as “synergistic effect” and the EC50 (CAL-78; flavopiridol + 1 nM INBRX-109) is reported as 115 nM. For the same molecule, the EC50 (CAL-78; flavopiridol only) was 146 nM, the “Max Cytotox at 125 nM” value (CAL-78; flavopiridol only) was 10.9% and the EC50 (OUMS-27; flavopiridol + 1 nM INBRX-109) was 118 nM. The “Max Cytotox” value (OUMS-27; flavopiridol + 1 nM INBRX-109) was 87.8%, the EC50 (OUMS-27; flavopiridol only) was 109 nM and the “Max Cytotox at 125 nM” value (OUMS-27; flavopiridol only) was 24.0%. The EC50 (SW1353; flavopiridol + 1 nM INBRX-109) was 133 nM, the “Max Cytotox” value (SW1353; flavopiridol + 1 nM INBRX-109) was 88.3% and the EC50 (SW1353; flavopiridol only) was 202 nM. For the same molecule, the “Max Cytotox at 125 nM” value (SW1353; flavopiridol only) was 21.7%, the EC50 (H-EMC-SS; flavopiridol + 1 nM INBRX-109) was 53.9 nM and the “Max Cytotox” value (H-EMC-SS; flavopiridol + 1 nM INBRX-109) was 99%. The EC50 (H-EMC-SS; flavopiridol only) was 114 nM, the “Max Cytotox at 125 nM” value (H-EMC-SS; flavopiridol only) was 21.9% and the EC50 (HS-SY-II; flavopiridol + 1 nM INBRX-109) was 103 nM. The “Max Cytotox” value (HS-SY-II; flavopiridol + 1 nM INBRX-109) was 95.1%, the EC50 (HS-SY-II; flavopiridol only) was 108 nM and the “Max Cytotox at 125 nM” value (HS-SY-II; flavopiridol only) was 55.8%. The EC50 (SW620; flavopiridol + 1 nM INBRX-109) was 50.2 nM, the “Max Cytotox” value (SW620; flavopiridol + 1 nM INBRX-109) was 98.7% and the EC50 (SW620; flavopiridol only) was “Unstable”. The “Max Cytotox at 125 nM” value (SW620; flavopiridol only) was 21.7%.

For `N[C@H]1CC[C@H](Nc2cc(-c3cccc(NCc4cccc(F)c4)n3)c(Cl)cn2)CC1` [i-CDK9], the “selectivity for CDK9 over other CDKs” value (CDK9) is given as 600 fold.

In the case of `COc1cc(F)ccc1-c1cc(Nc2cc(CS(C)(=N)=O)ccn2)ncc1F` (centres unmarked) [Enitociclib], the “cell killing by the combination” value [1] is reported as “increased cell killing on nearly every cancer cell line tested”, the “combination effect (shift in the killing curves of INBRX-109)” value [1, 2] is reported as “synergistic effect” and the EC50 (CAL-78; enitociclib + 1 nM INBRX-109) is reported as 108 nM. The “Max Cytotox” value (CAL-78; enitociclib + 1 nM INBRX-109) was 90.8%, the EC50 (CAL-78; enitociclib only) was 144 nM and the “Max Cytotox at 125 nM” value (CAL-78; enitociclib only) was 10.9%. For the same molecule, the EC50 (OUMS-27; enitociclib + 1 nM INBRX-109) was 90.4 nM, the “Max Cytotox” value (OUMS-27; enitociclib + 1 nM INBRX-109) was 81% and the EC50 (OUMS-27; enitociclib only) was 51 nM. For the same molecule, the “Max Cytotox at 125 nM” value (OUMS-27; enitociclib only) was 25.6%, the EC50 (SW1353; enitociclib + 1 nM INBRX-109) was 103 nM and the “Max Cytotox” value (SW1353; enitociclib + 1 nM INBRX-109) was 64.6%. The EC50 (SW1353; enitociclib only) was 102 nM, the “Max Cytotox at 125 nM” value (SW1353; enitociclib only) was 28.0% and the EC50 (H-EMC-SS; enitociclib + 1 nM INBRX-109) was 114 nM. For the same molecule, the “Max Cytotox” value (H-EMC-SS; enitociclib + 1 nM INBRX-109) was 99.2%, the EC50 (H-EMC-SS; enitociclib only) was 124 nM and the “Max Cytotox at 125 nM” value (H-EMC-SS; enitociclib only) was 15.8%. The EC50 (HS-SY-II; enitociclib + 1 nM INBRX-109) was 89.1 nM, the “Max Cytotox” value (HS-SY-II; enitociclib + 1 nM INBRX-109) was 94% and the EC50 (HS-SY-II; enitociclib only) was 74 nM. The “Max Cytotox at 125 nM” value (HS-SY-II; enitociclib only) was 73.2%, the EC50 (SW620; enitociclib + 1 nM INBRX-109) was 39.3 nM and the “Max Cytotox” value (SW620; enitociclib + 1 nM INBRX-109) was 97.6%. For the same molecule, the EC50 (SW620; enitociclib only) was 25.8 nM and the “Max Cytotox at 125 nM” value (SW620; enitociclib only) was 27.3%.

For `COC[C@@H](C)N[C@H]1CC[C@H](Nc2cc(-c3cccc(NCC4(C#N)CCOCC4)n3)c(Cl)cn2)CC1` [NVP-2], the “cell killing by the combination” value [1] was “increased cell killing on nearly every cancer cell line tested”, the “combination effect (shift in the killing curves of INBRX-109)” value ([1]; concentrations higher than 25 nM) was “synergistic effect” and the EC50 (CAL-78; NVP-2 + 1 nM INBRX-109) was 26.4 nM. For the same molecule, the “Max Cytotox” value (CAL-78; NVP-2 + 1 nM INBRX-109) was 92.4%, the EC50 (CAL-78; NVP-2 only) was 23.2 nM and the “Max Cytotox at 125 nM” value (CAL-78; NVP-2 only) was 42.2%. For the same molecule, the EC50 (OUMS-27; NVP-2 + 1 nM INBRX-109) was 16.3 nM, the “Max Cytotox” value (OUMS-27; NVP-2 + 1 nM INBRX-109) was 88.5% and the EC50 (OUMS-27; NVP-2 only) was 9 nM. For the same molecule, the “Max Cytotox at 125 nM” value (OUMS-27; NVP-2 only) was 20.4%, the EC50 (SW1353; NVP-2 + 1 nM INBRX-109) was 22.3 nM and the “Max Cytotox” value (SW1353; NVP-2 + 1 nM INBRX-109) was 79.5%. The EC50 (SW1353; NVP-2 only) was 30.6 nM, the “Max Cytotox at 125 nM” value (SW1353; NVP-2 only) was 52.8% and the EC50 (H-EMC-SS; NVP-2 + 1 nM INBRX-109) was 24.5 nM. For the same molecule, the “Max Cytotox” value (H-EMC-SS; NVP-2 + 1 nM INBRX-109) was 98.7%, the EC50 (H-EMC-SS; NVP-2 only) was 23.5 nM and the “Max Cytotox at 125 nM” value (H-EMC-SS; NVP-2 only) was 46.4%. For the same molecule, the EC50 (SW620; NVP-2 + 1 nM INBRX-109) was 4.91 nM, the “Max Cytotox” value (SW620; NVP-2 + 1 nM INBRX-109) was 98.7% and the EC50 (SW620; NVP-2 only) was 12.6 nM. For the same molecule, the “Max Cytotox at 125 nM” value (SW620; NVP-2 only) was 39.5%.
